Each structure is given as a SMILES string.

The nature of the series: Human HepG2 cell viability assay in 384 well format. The series is classed as toxicity, cell-based. On the set-up: dose 125 nL, time 70.5 hour; cytotoxicity at 70.5 h: concentration not given beside the values. To be noted: HepG2 cells, read-out: Inhibition.
With `CN(Cc1cccc(F)c1)C(=O)CN1CCCC(Cn2cncn2)C1` (stereo not drawn), the cytotoxicity at 70.5 h came out at 15.6%. In the case of `CN(Cc1ccccc1)C(=O)CSc1ccc2c(c1)OCCO2` it was 2.14%; in that of `CCc1cc(NC(=O)C(c2cccc(F)c2)N2CCOCC2)[nH]n1` (stereo not drawn), -4.49%.

On to `Cc1c(C(=O)NCC(C)C)nnn1-c1cccc2c1CCN(CCO)C2`, for which the cytotoxicity at 70.5 h is -2.54%. Regarding `COc1cc(C(=O)N(Cc2ccco2)C2CC2)cc(OC)c1OC`, the cytotoxicity at 70.5 h worked out at 23.7%.

On to `COc1cc(NC(=O)c2ccc(Cl)cc2F)c(C(=O)N(C)C)cc1OC`, for which the cytotoxicity at 70.5 h was -11.5%.

Regarding `COc1cc(NC(=O)c2ccc(C)cc2C)c(C(=O)N(C)C)cc1OC`, the cytotoxicity at 70.5 h worked out at 4.46%. As to `O=C(COc1cccc2c1CCC2=O)NCCc1cccs1`, the cytotoxicity at 70.5 h came to 12.1%.

As for `O=C(COc1cccc2c1CCC2=O)NCc1ccccc1Cl`, the cytotoxicity at 70.5 h was -10.6%.

Consider `CC(CN1CCOCC1)NC(=O)NCCc1ccc(Cl)s1` (stereo not drawn), for which the cytotoxicity at 70.5 h was -6.3%.

Regarding `CC(C)COCCC(=O)NCc1cn2cc(Br)ccc2n1`, the cytotoxicity at 70.5 h was found to be 18.2%. The value for `COc1ccc(-c2nnc(SC(C)C(=O)NC(C)(C)C)[nH]2)c(OC)c1` (stereo not drawn) was 32.5%; that for `O=C(CCCOc1ccccc1F)Nc1cc[nH]n1` was -6.95%. With `CC(C(=O)NCc1cn2cc(Br)ccc2n1)S(C)(=O)=O` (stereo not drawn), the cytotoxicity at 70.5 h was -5.34%. As to `Cc1cc(NS(=O)(=O)c2ccc(Cl)s2)ccc1-n1cccc1C(=O)O`, the cytotoxicity at 70.5 h is -4.85%. For the compound `CS(=O)(=O)N1CCc2c(cccc2NC(=O)Nc2ccccn2)C1`, the cytotoxicity at 70.5 h came out at 10.3%. In the case of `FC(F)(F)c1ccnc(N2CCCN(C3CCOCC3)CC2)c1` it was -11.5%; in that of `Cc1cccc(N2CCC(NCc3cnc(C4CCC4)s3)CC2)n1`, 3.13%. In the case of `CC(C)(C)OC(=O)N1CCCN(c2nnc(C3CC3)s2)CC1`, the cytotoxicity at 70.5 h was -0.941%. As for `FC(F)(F)c1ccnc(N2CCCOCC2)c1`, the cytotoxicity at 70.5 h was -13.6%. In the case of `c1cncc(CN2CCC(NCCc3ccc4c(c3)CCO4)CC2)c1`, the cytotoxicity at 70.5 h was 4.11%. For `NCc1ccc(Oc2cccc(Cl)c2Cl)cc1`, the cytotoxicity at 70.5 h stood at 14.7%.

Regarding `CCOc1ccccc1Oc1ccc(CN)cn1`, the cytotoxicity at 70.5 h was -7.48%. In the case of `CCc1nc(COc2ccc(N(C)C(C)=O)cc2)no1` it was 26%; in that of `O=c1cc(CN2CCC(CCc3ccc(O)cc3)CC2)[nH]c(=O)[nH]1`, -6.15%.

`O=C(CNc1cc2c(cc1Br)OCCO2)NC1CCS(=O)(=O)C1` (stereo not drawn): the cytotoxicity at 70.5 h was -2.07%.

Turning to `NC(=O)CN1CCC(NC(=O)N2CCCC2c2ccncc2)CC1` (stereo not drawn), the cytotoxicity at 70.5 h was -11.7%. The value for `O=C(Nc1cc2c(cc1Br)OCCO2)NC1CCS(=O)(=O)C1` (stereo not drawn) was 10.1%. Take `Cc1nnc2n1CCN(C(=O)CN1C(=O)CSc3ccccc31)C2`: the cytotoxicity at 70.5 h was -3.59%. For the compound `Cc1ncc(CN(C)C(=O)c2ccc3c(c2O)OC(C)(C)C3)s1`, the cytotoxicity at 70.5 h is -1.48%. In the case of `Cc1nnc2n1CCN(C(=O)CN1C(=O)CCCc3ccccc31)C2` it was 12.9%; in that of `Cc1cc(CNc2ccc3nc(C4CC4)sc3c2)no1`, -9.59%; in that of `CCCNC(=O)C1CCN(CC2(O)CCC(C)CC2)CC1` (stereo not drawn), -3.07%. In the case of `CC1CCC(O)(CN2CCN(CCNC(=O)C3CCC3)CC2)CC1` (stereo not drawn), the cytotoxicity at 70.5 h is -14.6%. Regarding `O=C(NS(=O)(=O)c1cnn(-c2ccccc2F)c1)c1ccco1`, the cytotoxicity at 70.5 h was 1.58%. As for `CC(C)c1cnc(CN2C(=O)CC3(CCSC3)C2=O)o1` (stereo not drawn), the cytotoxicity at 70.5 h is -3.08%.

For the compound `Nc1nccnc1C(=O)N(Cc1ccco1)CC1CCCO1` (stereo not drawn), the cytotoxicity at 70.5 h was -2.09%. Take `CC(C)(C)c1cnc(CN2C(=O)CC3(CCSC3)C2=O)o1` (stereo not drawn): the cytotoxicity at 70.5 h was -4.79%. With `CCOc1ccc(NC(=O)N(CCC#N)Cc2ccccn2)cc1F`, the cytotoxicity at 70.5 h was 12%. Turning to `COCCCNC(=O)C1CCN(CC2(O)CCC(C)CC2)CC1` (stereo not drawn), the cytotoxicity at 70.5 h is -3.99%.

With `CC(c1ccccc1)N(C)C(=O)CN1CCCc2cccc(F)c21` (stereo not drawn), the cytotoxicity at 70.5 h is 0.621%. Turning to `CC(C)c1noc(CN(C)C(c2ccc(F)cc2)c2cccnc2)n1` (stereo not drawn), the cytotoxicity at 70.5 h was determined as 10.2%. In the case of `Cc1ncsc1CN(C)C(=O)C(CC(C)C)N1CCCCC1=O` (stereo not drawn), the cytotoxicity at 70.5 h is -2.15%. With `COCCNC(=O)c1nn(-c2cccc(C(C)C)c2)cc1O`, the cytotoxicity at 70.5 h was found to be 41.1%.

As for `Cc1noc(C)c1CN(C)CC(=O)/N=c1\cc[nH]n1C(C)C1CC1` (stereo not drawn), the cytotoxicity at 70.5 h amounted to 22.1%. Turning to `COCc1nc(CNc2cccc(-c3ncon3)c2)cs1`, the cytotoxicity at 70.5 h was found to be 29.2%. On to `CCN(C(=O)CN1CCCC1c1ccc(OC)cc1)c1ccccc1C` (stereo not drawn), for which the cytotoxicity at 70.5 h is -0.0656%.

Regarding `Cc1sc2nc(SC(C)c3nc(C(C)C)no3)nc(N)c2c1C` (stereo not drawn), the cytotoxicity at 70.5 h came out at 3.75%. Regarding `Cn1cc(CNC(=O)C2COCC(=O)N2Cc2ccccc2)cn1` (stereo not drawn), the cytotoxicity at 70.5 h worked out at 2.62%. In the case of `CC(C)CCN(C(=O)c1cc2c([nH]c1=O)CCCC2=O)C1CC1` it was -2.36%; in that of `COc1c(C)cnc(CNC(=O)CCc2nc3ccccc3[nH]2)c1C`, -3.14%; in that of `Cc1occc1C(=O)N1CCC(C(O)c2ccc(Cl)cc2)CC1` (stereo not drawn), 5.5%. For the compound `CCc1cnc(CN2CCOC(c3nc(C)n[nH]3)C2)o1` (stereo not drawn), the cytotoxicity at 70.5 h is -7.69%. For `CNC(=O)c1csc(-c2ccoc2)n1`, the cytotoxicity at 70.5 h was -4.01%. Regarding `O=c1[nH]nc(CNc2cncc(Br)c2)[nH]1`, the cytotoxicity at 70.5 h stood at 29.9%.

Turning to `CC(C)Cc1ccc(S(=O)(=O)NCCCN2CCNC(=O)C2)cc1`, the cytotoxicity at 70.5 h is -3.66%. The value for `CN(C)C(=O)CN1CCCc2c(F)cc(Br)cc21` was -2.61%; that for `COc1ccccc1OCCC(=O)NCc1ncc(C)c(OC)c1C` was -4.64%. The value for `COCCN(CCN(C)C)C(=O)NC1CC1` was -2.74%; that for `COC(=O)c1cccc(CNC(=O)c2cc(C(C)C)n(C)n2)c1` was 27.4%.

Turning to `CC(Cn1cccn1)NCCS(=O)(=O)c1ccccc1` (stereo not drawn), the cytotoxicity at 70.5 h is -8.75%. As to `CC(Cn1cccn1)NCCS(=O)(=O)c1ccc(Cl)cc1` (stereo not drawn), the cytotoxicity at 70.5 h was -9.68%. `COc1ccc2c(c1)C(NCCc1c(C)noc1C)CCCO2` (stereo not drawn): the cytotoxicity at 70.5 h was determined as 29.3%. The value for `O=C(CN1CCCc2c(F)cc(Br)cc21)N1CCCC1` was 3.5%. As to `CN(CC(O)C1CC1)C(=O)c1ccc(-c2nc(C3CC3)no2)cc1` (stereo not drawn), the cytotoxicity at 70.5 h came to 2.53%. In the case of `COc1cccc(S(=O)(=O)CCNCCn2cccn2)c1`, the cytotoxicity at 70.5 h is -10.6%. `CC(=O)N(c1ccc(C)cc1)c1nc(CN2CCCCC2C)cs1` (stereo not drawn): the cytotoxicity at 70.5 h is 16.8%.

With `CNS(=O)(=O)CCCN1CCN(C(C)c2cccnc2)CC1` (stereo not drawn), the cytotoxicity at 70.5 h stood at 18.3%. As for `COc1ccc(CCNC(=O)CC(NC(N)=O)c2ccccc2)cc1` (stereo not drawn), the cytotoxicity at 70.5 h worked out at 14.7%. Regarding `Cc1nnc(NC(=O)NC(C)C(=O)NC2CCCC2)s1` (stereo not drawn), the cytotoxicity at 70.5 h is -3.86%.

For the compound `CN(C)C(=O)CCNC(=O)NCc1ccc(Br)cc1Cl`, the cytotoxicity at 70.5 h was determined as 17.2%. `CC(=O)NCCNC(=O)NCc1ccc(Br)cc1Cl`: the cytotoxicity at 70.5 h was -0.47%. For the compound `CC(=O)N(c1ccc(F)cc1)c1nc(CN2CCCC2C(C)C)cs1` (stereo not drawn), the cytotoxicity at 70.5 h stood at 24.7%.

For the origin of these results see ChEMBL document CHEMBL3507680, “University of Dundee, Gates Library screen for HepG2 cell viability”.
